Measured values: patent US11992545B2, “Aqueous cosmetic compositions containing pelargonic acid esters” (Novamont S.p.A., priority 2015, dated 2024)

Columns and labels:
[1] = Pigments dispersion: wet point and flow point; type: physicochemical; settings: for Fp (flow point), amount of ester oil / Wp (wet point), amount of ester oil: grams per 100 g of pigment
Source text: Black Iron Oxide particles (C177499, commercially available as YPC335200 from Yipin) were dispersed in each of the ester oils of the present invention and in ester oil commonly used as cosmetic ingredients. Each sample of powder particles was wetted by the dropwise addition of one ester oil and then vigorously blended using a spatula until the wet point and the flow point were reached.
The wet point is defined as the minimum volume of dispersant solution to produce a soft coherent mass; the further minimum addition of dispersant solution to produce flow or falling off of the homogeneous mass from the vertical blade of a horizontally held spatula determines the flow point.
The amounts of dispersant solution (i.e. ester oil) needed to reach the wet point (Wp) and the flow point (Fp) were recorded and reported in the table below, expressed in grams per 100 g of pigment.

[2] = UV filters dispersion (dispersibility of solid UV filter in ester oils); type: physicochemical; parameters: key to Filters dispersion t0, 1% / Filters dispersion t0, 10% / Filters dispersion t24, 1% / Filters dispersion t24, 10%: D=homogeneous dispersion; S=sediment deposit; settings: for Filters dispersion t0, 1%: 1% TiO2, 0 hours at 25° C.; for Filters dispersion t24, 1%: 1% TiO2, 24 hours at 25° C.; for Filters dispersion t0, 10%: 10% TiO2, 0 hours at 25° C.; for Filters dispersion t24, 10%: 10% TiO2, 24 hours at 25° C.; for dispersion of Titania compared with reference solvents: in words
Procedure: The dispersibility of a solid UV filter in different ester oils was tested using Titania (TiO2, commercially available as Titanio Biossido Anatasio from A.C.E.F.). Various ratios of filter/ester (1% and 10% TiO2) were prepared under stirring at 70° C. for 30 minutes. The dispersions were then observed after a storage period of 0 hours (t0) and 24 hours (t24) at ambient temperature (25° C.) to check for the formation of any sediment deposit. Results for each ester are shown in the table below (D=homogeneous dispersion; S=sediment deposit).

Row | less solvent required in the final composition [1] | Fp (flow point), amount of ester oil [1] | Wp (wet point), amount of ester oil [1] | dispersion properties compared with commonly used cosmetic ingredients ([1]; in words) | Filters dispersion t0, 1% [2] | Filters dispersion t24, 1% [2] | Filters dispersion t0, 10% [2] | Filters dispersion t24, 10% [2] | dispersion of Titania compared with reference solvents [2] | SMILES
1 | about 30% | 100.00 g | 60.00 g | even better | D | D | D | S/D | even better | CCCCCCCCC(=O)OCC(COC(=O)CCCCCCCC)OC(=O)CCCCCCCC [Glycerol tripelargonate]
2 |  | 145.00 g | 50.00 g |  | D | S | D | S |  | CC(C)CCCCCCOC(=O)CCCCCC(C)C [Isononyl Isononanoate, reference compound]
3 |  | 166.00 g | 61.00 g |  | D | S/D | D | S/D |  | CCCCCCCCC(=O)OCC(C)(C)COC(=O)CCCCCCCC [Neopentyl glycol dipelargonate]
4 |  | 132.00 g | 62.00 g |  | D | D | D | D | even better | CCCCCCCCC(=O)OCC(COC(=O)CCCCCCCC)(COC(=O)CCCCCCCC)COC(=O)CCCCCCCC [Pentaerythritol tetrapelargonate]
